The source of these data is patent publication US20130096119A1, “Isoquinolin-3-Ylurea Derivatives” (priority 2010, published 2013).

In brackets after ≈: the same amount, converted by molar mass.

In one test the test system is S. pneumoniae ATCC 49619. Briefly: Minimal inhibitory concentration (MIC) by microdilution method (CLSI M7-A7). The note with it: Streptococcus pneumoniae, ATCC49619, cation-adjusted Mueller-Hinton Broth supplemented with 3% (v/v) lysed horse blood. The class given is cell-based, Streptococcus pneumoniae. The protocol:
Minimal inhibitory concentrations (MICs; mg/l) were determined in cation-adjusted Mueller-Hinton Broth (supplemented with 3% (v/v) lysed horse blood for testing Streptococcus pneumoniae) by a microdilution method following the description given in “Methods for Dilution Antimicrobial Susceptibility Tests for Bacteria that Grow Aerobically”, Approved standard, 7th ed., Clinical and Laboratory Standards Institute (CLSI) Document M7-A7, Wayne, Pa., USA, 2006.
As for `CCNC(=O)Nc1cc2cc(-c3ccsc3)cc(C)c2cn1` [Example 93, 1-ethyl-3-(8-methyl-6-thiophen-3-yl-isoquinolin-3-yl)-urea], the MIC came out at 2 µg/mL (≈ 6.42 µM).

In the case of `C=Cc1cc(C)c2cnc(NC(=O)NCC)cc2c1` [Example 216, 1-ethyl-3-(8-methyl-6-vinyl-isoquinolin-3-yl)-urea], the minimum inhibitory concentration (MIC) is 8 µg/mL (≈ 31.3 µM).

In turn, `CCNC(=O)Nc1cc2c(-c3c[nH]cn3)ccc(Cl)c2cn1` [Example 288, 1-[8-chloro-5-(1H-imidazol-4-yl)-isoquinolin-3-yl]-3-ethyl-urea] returned an MIC of 2 µg/mL (≈ 6.33 µM).

The molecule `CCCNc1cc(C)c2cnc(NC(=O)NCC)cc2c1` [Example 115, 1-ethyl-3-(8-methyl-6-propylamino-isoquinolin-3-yl)-urea] came in with an MIC of 4 µg/mL (≈ 14 µM).

On to `CCNC(=O)Nc1cc2c(F)ccc(-c3ccc(C(=O)O)cc3)c2cn1` [Example 74, 4-[3-(3-ethyl-ureido)-5-fluoro-isoquinolin-8-yl]-benzoic acid], for which the MIC came to 2 µg/mL (≈ 5.66 µM).

`CCNC(=O)Nc1cc2c(-c3c[nH]cn3)ccc(C)c2cn1.Cl` [Example 280, 1-ethyl-3-[5-(1H-imidazol-4-yl)-8-methyl-isoquinolin-3-yl]urea hydrochloride] had an MIC of 1 µg/mL. Compared with the last molecule, the MIC is about 2-fold lower.

Consider `CCNC(=O)Nc1cc2cc(NCc3cccc(OCCO)c3)cc(C)c2cn1.Cl` [Example 129, 1-ethyl-3-{6-[3-(2-hydroxy-ethoxy)-benzylamino]-8-methyl-isoquinolin-3-yl}-urea hydrochloride], for which the lowest concentration to inhibit growth (MIC) was 16 µg/mL.

In the case of `CCNC(=O)Nc1cc2cccc(Nc3ccc(C#N)cc3)c2cn1` [Example 174, 1-[8-(4-cyano-phenylamino)-isoquinolin-3-yl]-3-ethyl-urea], the MIC is 2 µg/mL (≈ 6.04 µM). This MIC is about 8-fold lower than that of the molecule before.

As for `CCNC(=O)Nc1cc2c(CN3CCOCC3)ccc(Nc3cccc(OC)n3)c2cn1` [Example 275, 1-ethyl-3-{8-[(6-methoxy-pyridin-2-yl)amino]-5-(morpholin-4-ylmethyl)-isoquinolin-3-yl}-urea], it took 4 µg/mL (≈ 9.16 µM) to inhibit growth (MIC). Against the preceding molecule, the MIC is about 2-fold higher.

The molecule `CCNC(=O)Nc1cc2c(-c3ccc(S(N)(=O)=O)cc3)ccc(Nc3cccnc3)c2cn1` [Example 230, 4-[3-(3-ethyl-ureido)-8-(pyridin-3-ylamino)-isoquinolin-5-yl]-benzenesulfonamide] yielded an MIC of 0.5 µg/mL (≈ 1.08 µM).

In turn, `CCNC(=O)Nc1cc2cc(-c3ccncc3Cl)cc(C)c2cn1` [Example 98, 1-[6-(3-chloro-pyridin-4-yl)-8-methyl-isoquinolin-3-yl]-3-ethyl-urea] returned an MIC of 4 µg/mL (≈ 11.7 µM).

`CCNC(=O)Nc1cc2c(-c3cscc3C)ccc(C)c2cn1` [Example 64, 1-ethyl-3-[8-methyl-5-(4-methyl-thiophen-3-yl)-isoquinolin-3-yl]-urea]: the MIC amounted to 1 µg/mL (≈ 3.07 µM).

With `CCNC(=O)Nc1cc2cccc(Nc3ccc(C(=O)OC)cn3)c2cn1.Cl` [Example 165, 6-[3-(3-ethyl-ureido)-isoquinolin-8-ylamino]-nicotinic acid methyl ester hydrochloride], the MIC came out at 4 µg/mL.

The molecule `CCNC(=O)Nc1cc2cc(-c3ccccc3C(=O)N(C)C)cc(C)c2cn1` [Example 23, 2-[3-(3-ethyl-ureido)-8-methyl-isoquinolin-6-yl]-N,N-dimethyl-benzamide] had an MIC of 8 µg/mL (≈ 21.3 µM).

For `CCNC(=O)Nc1cc2c(-c3ccc(CO)cc3)ccc(Nc3cccnc3)c2cn1` [Example 226, 1-ethyl-3-[5-(4-hydroxymethyl-phenyl)-8-(pyridin-3-ylamino)-isoquinolin-3-yl]-urea], it took 1 µg/mL (≈ 2.42 µM) to inhibit growth (MIC). Compared with the last molecule, the MIC is about 8-fold lower.

Turning to `CCNC(=O)Nc1cc2cccc(Nc3ccc(C(=O)NC)cc3)c2cn1.Cl` [Example 204, 4-[3-(3-ethyl-ureido)-isoquinolin-8-ylamino]-N-methyl-benzamide hydrochloride], the MIC stood at 2 µg/mL.

In turn, `CCNC(=O)Nc1cc2cc(-c3cccc(CN)c3)cc(C)c2cn1` [Example 26, 1-[6-(3-(aminomethyl)-phenyl)-8-methyl-isoquinolin-3-yl]-3-ethyl-urea] yielded an MIC of 0.5 µg/mL (≈ 1.5 µM).

As to `CCNC(=O)Nc1cc2cccc(Nc3cccc(CC(=O)N(C)C)c3)c2cn1.Cl` [Example 211, 2-{3-[3-(3-ethyl-ureido)-isoquinolin-8-ylamino]phenyl}-N,N-dimethyl-acetamide hydrochloride], 4 µg/mL was the least that counted as inhibitory (MIC).

Molecule `CCNC(=O)Nc1cc2c(-c3ccncn3)ccc(Nc3ccc(C)nc3)c2cn1` [Example 287, 1-ethyl-3-[8-(6-methyl-pyridin-3-ylamino)-5-pyrimidin-4-yl-isoquinolin-3-yl]-urea] came in with an MIC of 0.25 µg/mL (≈ 0.626 µM).

Regarding `CCNC(=O)Nc1cc2cc(NCc3cccc(OC)c3)cc(C)c2cn1.Cl` [Example 197, 1-ethyl-3-[6-(3-methoxy-benzylamino)-8-methyl-isoquinolin-3-yl]-urea hydrochloride], it took 8 µg/mL to inhibit growth (MIC).

Regarding `CCNC(=O)Nc1cc2c(-c3cc(C)nc(C)c3)ccc(C)c2cn1` [Example 44, 1-[5-(2,6-dimethyl-pyridin-4-yl)-8-methyl-isoquinolin-3-yl]-3-ethyl-urea], the MIC is 4 µg/mL (≈ 12 µM).

For the molecule `CCNC(=O)Nc1cc2cccc(COc3ccc(C)nc3)c2cn1.Cl` [Example 256, 1-ethyl-3-[8-(6-methyl-pyridin-3-yloxymethyl)-isoquinolin-3-yl]-urea hydrochloride], the MIC came out at 8 µg/mL.

Turning to `CCNC(=O)Nc1cc2cccc(COc3ccc(C)cn3)c2cn1.Cl` [Example 257, 1-ethyl-3-[8-(5-methyl-pyridin-2-yloxymethyl)-isoquinolin-3-yl]-urea hydrochloride], the MIC was determined as 8 µg/mL.

The molecule `CCNC(=O)Nc1cc2cc(NCc3ccc(OCC(N)=O)cc3)cc(C)c2cn1` [Example 186, 2-(4-{[3-(3-ethyl-ureido)-8-methyl-isoquinolin-6-ylamino]-methyl}-phenoxy)-acetamide] yielded an MIC of 8 µg/mL (≈ 19.6 µM).

For the molecule `CCNC(=O)Nc1cc2c(N3CCOCC3)ccc(Nc3cccnc3)c2cn1` [Example 274, 1-ethyl-3-[5-morpholin-4-yl-8-(pyridin-3-ylamino)-isoquinolin-3-yl]-urea], it took 2 µg/mL (≈ 5.1 µM) to inhibit growth (MIC).

Regarding `CCNC(=O)Nc1cc2cccc(Nc3ccc(O)cc3)c2cn1` [Example 175, 1-ethyl-3-[8-(4-hydroxy-phenylamino)-isoquinolin-3-yl]-urea], the MIC was found to be 16 µg/mL (≈ 49.6 µM).

In the case of `CCNC(=O)Nc1cc2c(-c3cccnc3)ccc(C)c2cn1` [Example 50, 1-ethyl-3-(8-methyl-5-pyridin-3-yl-isoquinolin-3-yl)-urea], the MIC was 8 µg/mL (≈ 26.1 µM).

`CCNC(=O)Nc1cc2c(-c3ccncn3)ccc(C)c2cn1` [Example 278, 1-ethyl-3-(8-methyl-5-pyrimidin-4-yl-isoquinolin-3-yl)-urea] showed an MIC of 2 µg/mL (≈ 6.51 µM).

In the case of `CCNC(=O)Nc1cc2c(F)c(-c3cncc(C)c3)cc(C)c2cn1` [Example 141, 1-ethyl-3-[5-fluoro-8-methyl-6-(5-methylpyridin-3-yl)isoquinolin-3-yl]-urea], 0.5 µg/mL (≈ 1.48 µM) was the least that counted as inhibitory (MIC).

Staying with this test, now noted: cation-adjusted Mueller-Hinton Broth supplemented with 3% (v/v) lysed horse blood.
With “N-{1-[3-(3-ethyl-ureido)-8-methyl-isoquinolin-6-yl]-phenyl}-acetamide [Example 18]”, the “MIC for S. pneumoniae ATCC 49619” value was 0.25 µg/mL.

Consider “1-ethyl-3-[8-(5-hydroxymethyl-imidazol-1-ylmethyl)-isoquinolin-3-yl]-urea and 1-ethyl-3-[8-(4-hydroxymethyl-imidazol-1-ylmethyl)-isoquinolin-3-yl]-urea [Example 293]”, for which the “MIC for S. pneumoniae ATCC 49619” value worked out at 4 µg/mL.
